Experiment in all cases: E. coli hemG growth inhibition by herbicide, AtPPO1 variant
Common to all, as to type: cell-based
Conditions in all cases: read-out: percentage growth inhibition

One test deals with T1, AtPPO1 E212Y (Arabidopsis thaliana, UniProt P55826, E212Y).
T1 construct: expressed in transfected cells; host or cells: E. coli BL21(DE3) hemG (hemG replaced by CmR), pET24a plasmid
T1 sequence (P55826 35-537 E212Y): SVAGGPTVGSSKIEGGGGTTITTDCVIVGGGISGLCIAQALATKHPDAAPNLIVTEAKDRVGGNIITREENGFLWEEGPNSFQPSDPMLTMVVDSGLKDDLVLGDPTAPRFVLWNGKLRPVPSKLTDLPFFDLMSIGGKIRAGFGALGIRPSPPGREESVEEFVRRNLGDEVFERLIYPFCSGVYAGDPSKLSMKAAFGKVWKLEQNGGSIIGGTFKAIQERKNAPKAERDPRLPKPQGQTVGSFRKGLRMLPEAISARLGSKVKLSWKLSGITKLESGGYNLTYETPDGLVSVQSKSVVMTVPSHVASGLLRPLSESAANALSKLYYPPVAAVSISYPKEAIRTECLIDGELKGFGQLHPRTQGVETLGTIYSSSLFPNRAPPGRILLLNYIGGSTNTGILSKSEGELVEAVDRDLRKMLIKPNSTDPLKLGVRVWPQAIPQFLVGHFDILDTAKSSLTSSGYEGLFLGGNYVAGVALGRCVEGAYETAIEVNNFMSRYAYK
In a few lines: (§1)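 Read-out is OD600 at 24 h post inoculation, converted to percent growth inhibition relative to DMSO. The hemG-deleted BL21(DE3) host relied on the plasmid-borne AtPPO1 variant, induced with 0.1 mM IPTG, with 6.25 ppm herbicide 0 or E or 0.78 ppm herbicide B present at 37° C.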

The target of another test is T2, AtPPO1 V88I (Arabidopsis thaliana, UniProt P55826, V88I).
T2 construct: expressed in transfected cells; host or cells: E. coli BL21(DE3) hemG (hemG replaced by CmR), pET24a plasmid
T2 sequence (P55826 35-537 V88I): T1 sequence (P55826 35-537 E212Y) with V54I, Y178E
In a few lines:
as §1

The target of a further test is T3, AtPPO1 V447C (Arabidopsis thaliana, UniProt P55826, V447C).
T3 construct: expressed in transfected cells; host or cells: E. coli BL21(DE3) hemG (pET24a, T7 promoter)
T3 sequence (P55826 35-537 V447C): T1 sequence (P55826 35-537 E212Y) with Y178E, V413C
The essentials: as §1

A further test deals with T4, AtPPO1 A220C (Arabidopsis thaliana, UniProt P55826, A220C).
T4 construct: expressed in transfected cells; host or cells: E. coli BL21(DE3) hemG (hemG replaced by CmR), pET24a plasmid
T4 sequence (P55826 35-537 A220C): T1 sequence (P55826 35-537 E212Y) with Y178E, A186C
The essentials: as §1

The term inhibition denotes the drop in the measured response relative to a control, in per cent.

Substitutions are numbered along the chain they refer to.

Consider `C#CCN1C(=O)C(F)(F)Oc2cc(F)c(-n3c(=O)n(C)c(=S)n(C)c3=O)cc21` [Herbicide B, trifludimoxazin], for which the inhibition at 0.78 ppm on AtPPO1 E212Y amounted to 25%; at AtPPO1 V88I, 32%; on AtPPO1 V447C it was 34%; on AtPPO1 A220C it was 15%.
As for `CCOC(=O)[C@]1(C)CC(c2cc(-n3c(=O)n(C)c(=S)n(C)c3=O)c(F)cc2Cl)=NO1` [Herbicide D, ethyl (5S)-3-[2-chloro-5-(3,5-dimethyl-2,6-dioxo-4-thioxo-1,3,5-triazinan-1-yl)-4-fluoro-phenyl]-5-methyl-4H-isoxazole-5-carboxylate], the inhibition at 6.25 ppm at AtPPO1 E212Y worked out at 27%; on AtPPO1 V88I, 43%; at AtPPO1 V447C, 32%; on AtPPO1 A220C, 33%.
Taken in the same sequence, the figures for `CC(C)N(C)S(=O)(=O)NC(=O)c1cc(-n2c(=O)cc(C(F)(F)F)n(C)c2=O)c(F)cc1Cl` [Herbicide E, saflufenacil] were 65%, 66%, 53% and 66%.
